Laboratory results from patent US5455267A, “Chromone derivative, and aldose reductase inhibitor comprising said compound as active component” (Tsumura & Co., priority 1990, dated 1995).
Counter-ions that a name gives are not always drawn. Like-named read-outs stand apart in the source and are kept apart here.

Key:
aldose reductase = molecular target: T1, aldose reductase (Rattus norvegicus, UniProt P07943); test: Determination of Aldose Reductase Activity (In Vitro); format: biochemical, rat (Wistar); settings: for inhibition at 10 µM: at the concentration of 10 μM, read-out: Inhibition rate %
T1 construct: The crystalline lenses were homogenized in 135 mM sodium-potassium-phosphate buffer (pH 7.0) and centrifuged; from tissue; host or cells: lens of 6 week-old Wistar rats (30,000 rpm supernatant of homogenate)
Description: 6 week-old Wistar rats were sacrificed under ether anesthesia, and immediately lenses were removed and stored at -20° C. The crystalline lenses were homogenized in 135 mM sodium-potassium-phosphate buffer (pH 7.0) and centrifuged for 30 min. at 30,000 rpm. The supernatant was used as an aldose-reductase solution. The above procedure was carried out at 4° C. The enzyme solution was stored at -20° C.
The measurement of aldose reductase activity was conducted according to the method as described by Duffane et al. (Biochemical Medicine, 32:99-105 (1984)).
That is, 100 gl of the above enzyme solution and 100 gl of a solution prepared by dissolving a compound obtained in the following example to a final concentration of from 1.0×10^-5 to 4.0×10^-7 M in dimethylsulfoxide (DMSO) were added to 800 gl of 135 mM sodium-potassium-phosphate buffer (pH 7.0) containing 100 mM lithium sulfate, 0.03 mM NADPH (reduced form of nicotinamide adeninc dinucleotide phosphate) and 20 mM glucose as a substrate. The sample was allowed to react for 30 min. at 30° C. The reaction was stopped by addition of 0.3 ml of 0.5N hydrochloric acid. The NADP (oxided form of nicotinamide adenine dinucleotide) formed during the above reaction was converted into a fluorescent substance by addition of 1 ml of 6N sodium hydroxide containing 10 mM imidazole. 30 min. thereafter, the sample was measured for fluorescence intensity at the fluorescence wavelength of 460 nm (excitation wavelength: 360 nm) using a fluorescence photometer F-4000 (manufactured by Hitachi, Ltd.) at room temperature. A sample containing DMSO in place of the present compound was used as a control, and its fluorescence intensity was determined in the same manner as above.
Aldose reductase is an enzyme to convert DL-glyceraldehyde or glucose into polyol in the presence of NADPH as a coenzyme. As this reaction proceeds, NADPH is converted into NADP, so that the smaller amount of NADP formed indicates higher inhibition of aldose reductase. […]

[1] = system: sorbitol contained in the sciatic nerves (aldose reductase); test: Determination of Aldose Reductase Activity (In Vivo): sorbitol in sciatic nerves of STZ diabetic rats; set-up: species or system Wistar male rats; settings: Rattus norvegicus, po, 336 h, Table 3, sciatic nerve sorbitol, read-out: Repression rate %; for inhibition in vivo at 30 mg/kg: 30 mg/kg orally for 2 weeks; for inhibition in vivo at 50 mg/kg: 50 mg/Kg orally
Description: Streptozotocin (STZ) dissolved in 10 mM citrate buffer (pH 4.5) was administered intravenously to 6 week-old Wistar male rats […] in an amount of 65 mg/kg. 48 hours thereafter, blood was collected from the carotid […] of the rats. Rats with a blood glucose level of 200 mg/dl or more were classified as those with diabetes. Rats with a persistent high level of blood sugar were employed in the experiment. The blood glucose level was determined by the glucose oxidase method. 2 weeks after administration of STZ, a compound obtained in the following examples was suspended in purified water or 0.5% carboxy sodium cellulose solution. This solution was orally administered into a rat in an amount of 30 mg/kg for 2 weeks. 2 weeks after the adminstration, sciatic nerves were removed from the rat under ether anesthesia. The sciatic nerves were weighed and stored at -20° C. The amount of sorbitol contained in the sciatic nerves was determined as follows. That is, the sciatic nerves were subjected to extraction with 1 ml of purified water containing 10 gg/ml arabinitol at 100° C. for 20 min., followed by addition of 0.2 ml each of 0.2M barium hydroxide and 0.19M zinc sulfate. […] The resulting sample was […] then analyzed by gas chromatography. Sorbitol is an intermediate which occurs during convertion of glucose to fructose by aldose reductase, and this intermediate is accumulated together with fructose in the crystalline lenses and sciatic nerves, particularly under a high level of blood glucose. Therefore, the smaller amount of sorbitol formed indicates higher inhibition of aldose reductase.

aldehyde reductase = molecular target: T2, aldehyde reductase (Rattus norvegicus, UniProt P51635); test: Ability of Selective Inhibition of Aldose Reductase (aldehyde reductase activity); format: biochemical; settings: for IC50: Table 4, rat kidney aldehyde reductase, 50 mM DL-glyceraldehyde, pH 7.0, read-out: 50% Inhibition conc [IC50 (M)] Aldehyde reductase
T2 construct: The supernatant thus obtained was subjected to 30-60% ammonium sulfate fractionation; from tissue; host or cells: rat kidney (30-60% ammonium sulfate fraction of homogenate supernatant, dialyzed)
T2 sequence (P51635 1-325): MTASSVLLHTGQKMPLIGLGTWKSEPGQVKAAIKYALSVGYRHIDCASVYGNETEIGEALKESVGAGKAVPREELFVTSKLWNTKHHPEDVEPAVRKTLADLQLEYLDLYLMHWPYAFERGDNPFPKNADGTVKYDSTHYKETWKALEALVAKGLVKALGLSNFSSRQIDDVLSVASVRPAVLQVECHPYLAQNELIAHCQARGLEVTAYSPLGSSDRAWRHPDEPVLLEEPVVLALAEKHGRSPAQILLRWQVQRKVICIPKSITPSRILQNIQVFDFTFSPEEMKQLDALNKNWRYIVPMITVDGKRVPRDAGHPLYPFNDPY
Description: From rats under ether anesthesia, the kidneys were removed and stored at -20 ° C. The kidneys were homogenized in 0.1M phosphate buffer (pH 7.2) containing 5 mM 2-mercaptoethanol (kidneys: buffer =1:10 (by volume)), followed by centrifugation (14,000 rpm, 20 min., 4° C.), whereby a supernatant was obtained. The supernatant thus obtained was subjected to 30-60% ammonium sulfate fractionation. The resulting precipitates were collected by centrifugation (9,200 rpm, 20 min., 4° C.) The precipitates were suspended in a buffer with the same composition as described above. This suspension was dialyzed overnight at 4° C. against a buffer with the same composition, so that a crude aldehyde reductase solution was obtained. The activity of aldehyde reductase was determined in the same manner as for aldose reductase except for use of 0.1M phosphate buffer (pH 7.0) and as substrate 50 mM DL-glyceraldehyde.
The ability of selective inhibition of aldose reductase was determined by dividing the thus obtained 50% inhibition concentration [IC50 (M)] of aldehyde reductase by the above 50% inhibition concentration [IC50 (M)]of aldose reductase.

[2] = Table 3, rat lens aldose reductase, 20 mM glucose, 30 min, 30° C, pH 7.0, read-out: 50% Inhibition Conc. [IC50 (M)]
[3] = Table 4, aldose reductase, read-out: 50% Inhibition conc [IC50 (M)] Aldose reductase

COc1c(O)cc2oc(Oc3ccc(O)cc3)cc(=O)c2c1O [Capillarisin, reference compound]
inhibition at 10 µM (aldose reductase; Table 3): 81%
IC50 (aldose reductase; [2]): 1.6e-06 M
inhibition in vivo at 100 mg/kg ([1]; 100 mg/kg orally): 18.9%

CCC(CC)Oc1cc2oc(Sc3ccc(OC(=O)CN)cc3)cc(=O)c2c(OC)c1OC [Compound 1 obtained in Example 37, 7-(1-ethylpropoxy)-5,6-dimethoxy-2-(4-glycyloxyphenylthio)chromone hydrochloride]
inhibition in vivo at 30 mg/kg [1]: 51.6%

CCC(CC)Oc1cc2oc(Sc3ccc(OC(=O)c4ccc(CN5CCN(C)CC5)cc4)cc3)cc(=O)c2c(OC)c1OC [Compound 2 obtained in Example 39, 5,6-dimethoxy-7-(1-ethylpropoxy)-2-{4-[4-(4-methylpiperazinomethyl)benzoyloxy]phenylthio}chromone dihydrochloride]
inhibition in vivo at 30 mg/kg [1]: 4.6%

COc1c(O)cc2oc(Sc3ccc(O)cc3)cc(=O)c2c1O [Compound (Formula B), reference compound]
inhibition at 10 µM (aldose reductase; Table 3): 94.5%
IC50 (aldose reductase; [3]): 1.8e-07 M
Ability of selective inhibition (aldehyde reductase; IC50 of aldehyde reductase divided by IC50 of aldose reductase): 55.5
IC50 (aldehyde reductase): 1e-05 M

COc1cc2oc(Sc3ccc(O)cc3)cc(=O)c2c(OC)c1OC [Example 1, 2-(4-hydroxyphenylthio)-5,6,7-trimethoxychromone]
inhibition at 10 µM (aldose reductase; Table 3): 97.3%
IC50 (aldose reductase; [2]): 1.1e-07 M
IC50 (aldehyde reductase): > 0.0001 M

CCC(C)Oc1cc2oc(Sc3ccc(O)cc3)cc(=O)c2c(OC(C)C)c1OC (stereo not drawn) [Example 16, 7-s-butoxy-2-(4-hydroxyphenylthio)-5-isopropoxy-6-methoxychromone]
inhibition at 10 µM (aldose reductase; Table 3): 96.5%
IC50 (aldose reductase; [2]): 3.8e-08 M
IC50 (aldehyde reductase): > 0.0001 M

CCOc1c(OC)c(OC(C)C)cc2oc(Sc3ccc(O)cc3)cc(=O)c12 [Example 18, 5-ethoxy-2-(4-hydroxyphenylthio)-7-isopropoxy-6-methoxychromone]
inhibition at 10 µM (aldose reductase; Table 3): 98.7%
IC50 (aldose reductase; [3]): 1.8e-08 M
inhibition in vivo at 50 mg/kg [1]: 5.9%
IC50 (aldehyde reductase): > 0.0001 M

COc1c(OC(C)C)cc2oc(Sc3ccc(O)cc3)cc(=O)c2c1OC [Example 22, 5,6-dimethoxy-2-(4-hydroxyphenylthio)-7-isopropoxychromone]
inhibition at 10 µM (aldose reductase; Table 3): 98.3%
IC50 (aldose reductase; [2]): 3e-08 M
inhibition in vivo at 50 mg/kg [1]: 6.8%
IC50 (aldehyde reductase): > 0.0001 M

CCC(C)Oc1cc2oc(Sc3ccc(O)cc3)cc(=O)c2c(OC)c1OC (stereo not drawn) [Example 23, 7-s-butoxy-5,6-dimethoxy-2-(4-hydroxyphenylthio)chromone]
inhibition at 10 µM (aldose reductase; Table 3): 100%
IC50 (aldose reductase; [2]): 4.4e-08 M
IC50 (aldehyde reductase): > 0.0001 M

CCC(CC)Oc1cc2oc(Sc3ccc(O)cc3)cc(=O)c2c(OC)c1OC [Example 25, 5,6-dimethoxy-7-(1-ethylpropoxy)-2-(4-hydroxyphenylthio)chromone]
inhibition at 10 µM (aldose reductase; Table 3): 93.2%
IC50 (aldose reductase; [2]): 6e-08 M
inhibition in vivo at 50 mg/kg [1]: 16%
IC50 (aldehyde reductase): > 0.0001 M

CCC(CC)Oc1cc2oc(Sc3ccc(O)cc3)cc(=O)c2c(O)c1OC [Example 33, 7-(1-ethylpropoxy)-5-hydroxy-2-(4-hydroxyphenylthio)-6-methoxychromone]
inhibition at 10 µM (aldose reductase; Table 3): 96.7%
IC50 (aldose reductase; [2]): 1.1e-07 M
IC50 (aldehyde reductase): 0.0001 M

COc1c(OC(C)C)cc2oc(Sc3ccc(OC(=O)CN)cc3)cc(=O)c2c1OC [Example 35, 5,6-dimethoxy-2-(4-glycyloxyphenylthio)-7-isopropoxychromone hydrochloride]
inhibition in vivo at 30 mg/kg [1]: 43.7%

CCOc1c(OC)c(OC(C)C)cc2oc(Sc3ccc(OC(=O)CN)cc3)cc(=O)c12 [Example 36, 5-ethoxy-2-(4-glycyloxyphenylthio)-7-isopropoxy-6-methoxychromone hydrochloride]
inhibition in vivo at 30 mg/kg [1]: 12.3%

CCC(CC)Oc1cc2oc(Sc3ccc(OC(=O)c4ccc(CN5CCN(C)CC5)cc4)cc3)cc(=O)c2c(O)c1OC [Example 40, 7-(1-ethylpropoxy)-5-hydroxy-2-{4-[4-(4-methylpiperazinomethyl)benzoyloxy]phenylthio}-6-methoxychromone dihydrochloride]
inhibition in vivo at 30 mg/kg [1]: 27.9%
